In US20190192699A1, “NUCLEAR IMAGING AND RADIOTHERAPEUTICS AGENTS TARGETING CARBONIC ANHYDRASE IX AND USES THEREOF” (THE JOHNS HOPKINS UNIVERSITY, priority 2016, published 2019):
“And” between values parts separate entries of the source, which are not always exact repeats. Equal values may be shown once.

Tested on: SK-RC-52 xenografts
Test: Biodistribution of [111In]XYIMSR-01 and [177Lu]XYIMSR-01
Type: in vivo, mice
Procedure: Cell Lines and Mouse Models. Animal experiments were performed in accordance with protocols approved by the Johns Hopkins Animal Care and Use Committee (ACUC). Six-week-old female NOD/SCID mice were purchased from the Animal Resource Core of the Sidney Kimmel Comprehensive Cancer Center of Johns Hopkins and were subcutaneously injected in the lower left flank or upper right flank with 1×10^6 SK-RC-52 cells in RPMI 1640 GlutaMAX™ media (Life Technologies, Frederick, Md.) supplemented with 1% fetal bovine serum (FBS). Mice were monitored for tumor size and used for SPECT/CT imaging when the size of the tumor reached 100 mm^3.
Biodistribution of [^111In]XYIMSR-01 and [^177Lu]XYIMSR-01. Mice bearing SK-RC-52 xenografts at lower left flank were injected intravenously with 740 kBq (20 μCi) of [^111In]XYIMSR-01, or [^177Lu]XYIMSR-01 in 200 μL of PBS. For competitive blocking, same tumor bearing mice were injected with 740 kBq (20 μCi) of [^111In]XYIMSR-01 and 200 nmole of 1 in 200 μL of PBS. At 1 h, 4 h, 8 h, 24 h and 48 h post-injection, mice were sacrificed by cervical dislocation and the blood was immediately collected by cardiac puncture. Heart, lungs, pancreas, spleen, fat, brain, muscle, small intestines, liver, stomach, kidney, urinary bladder, and tumor were collected. Each organ was weighed and the tissue radioactivity was measured with an automated gamma counter (1282 Compugamma CS, Pharmacia/LKBNuclear, Inc., Mt. Waverly, Vic. Australia). The percentage of injected dose per gram of tissue (% ID/g) was calculated by comparison with samples of a standard dilution of the initial dose. All measurements were corrected for radioactive decay.
Data were expressed as mean±standard deviation (SD). Prism software (GraphPAD, San Diego, Calif.) was used to determine statistical significance. Statistical significance was calculated using a paired t test. P-values […] were considered significant.

[1] = 24 hr + Block (200 nmole of 1 co-injected)
[2] = 48 hr + Block (200 nmole of 1 co-injected)

`CC(CCC(=O)N[C@@H](CC(=O)N[C@@H](CC(=O)N[C@@H](CCCCn1cc(CCCC(=O)Nc2nnc(S(N)(=O)=O)s2)nn1)C(=O)NCCOCCOCCNC(=O)CN1CCN(CC(=O)[O-])CCN(CC(=O)[O-])CCN(CC(=O)[O-])CC1)C(=O)O)C(=O)O)(c1ccc(O)cc1)c1ccc(O)cc1.[111In+3]` [[^111In]XYIMSR-01] was tested, and the “Biodistribution: Liver” value [1] was 0.10 ± 0.02 % ID/g, the “Biodistribution: Lung” value [1] was 0.12 ± 0.02 % ID/g and the “Biodistribution: Muscle” value [1] was 0.02 ± 0.00 % ID/g. The “Biodistribution: Pancreas” value [1] was 0.03 ± 0.00 % ID/g, the “Biodistribution: Small intestine” value [1] was 0.08 ± 0.01 % ID/g and the “Biodistribution: Spleen” value [1] was 0.08 ± 0.01 % ID/g. The “Biodistribution: Stomach” value [1] was 0.14 ± 0.02 % ID/g, the “Biodistribution: Tumor” value [1] was 1.41 ± 0.20 % ID/g and the Tumor/Blood ratio [1] was 45.2 ± 9.7. The Tumor/Kidney ratio [1] was 2.1 ± 0.3, the Tumor/Muscle ratio [1] was 91.4 ± 11.1 and the “Biodistribution: Bladder” value (24 hr post-injection) was 0.74 ± 0.17 % ID/g. The “Biodistribution: Blood” value (24 hr post-injection) was 0.15 ± 0.02 % ID/g, the “Biodistribution: Brain” value (24 hr post-injection) was 0.71 ± 0.85 % ID/g and the “Biodistribution: Fat” value (24 hr post-injection) was 0.28 ± 0.19 % ID/g. The “Biodistribution: Heart” value (24 hr post-injection) was 1.16 ± 0.20 % ID/g, the “Biodistribution: Kidney” value (24 hr post-injection) was 15.29 ± 1.69 % ID/g and the “Biodistribution: Liver” value (24 hr post-injection) was 3.02 ± 3.46 % ID/g. The “Biodistribution: Lung” value (24 hr post-injection) was 11.01 ± 3.71 % ID/g, the “Biodistribution: Muscle” value (24 hr post-injection) was 0.35 ± 0.12 % ID/g and the “Biodistribution: Pancreas” value (24 hr post-injection) was 0.69 ± 0.18 % ID/g. The “Biodistribution: Small intestine” value (24 hr post-injection) was 2.11 ± 0.33 % ID/g, the “Biodistribution: Spleen” value (24 hr post-injection) was 0.69 ± 0.39 % ID/g and the “Biodistribution: Stomach” value (24 hr post-injection) was 3.31 ± 1.25 % ID/g. For the same compound, the “Biodistribution: Tumor” value (24 hr post-injection) was 25.6 % ID/g and 25.62 ± 17.67 % ID/g, the Tumor/Blood ratio (24 hr post-injection) was 178.1±145.4 and 178 and the Tumor/Kidney ratio (24 hr post-injection) was 1.7±1.2 and 1.7. The Tumor/Muscle ratio (24 hr post-injection) was 68.4±29.0 and 68, the “Biodistribution: Bladder” value [2] was 0.14 ± 0.03 % ID/g and the “Biodistribution: Blood” value [2] was 0.03 ± 0.00 % ID/g. For the same compound, the “Biodistribution: Brain” value [2] was 0.03 ± 0.01 % ID/g, the “Biodistribution: Fat” value [2] was 0.03 ± 0.01 % ID/g and the “Biodistribution: Heart” value [2] was 0.04 ± 0.01 % ID/g. The “Biodistribution: Kidney” value [2] was 0.45 ± 0.09 % ID/g, the “Biodistribution: Liver” value [2] was 0.13 ± 0.04 % ID/g and the “Biodistribution: Lung” value [2] was 0.09 ± 0.02 % ID/g. For the same compound, the “Biodistribution: Muscle” value [2] was 0.02 ± 0.00 % ID/g, the “Biodistribution: Pancreas” value [2] was 0.03 ± 0.01 % ID/g and the “Biodistribution: Small intestine” value [2] was 0.08 ± 0.02 % ID/g. The “Biodistribution: Spleen” value [2] was 0.11 ± 0.03 % ID/g, the “Biodistribution: Stomach” value [2] was 0.14 ± 0.03 % ID/g and the “Biodistribution: Tumor” value [2] was 1.22 ± 0.54 % ID/g. The Tumor/Blood ratio [2] was 45.4 ± 13.8, the Tumor/Kidney ratio [2] was 2.7 ± 0.8 and the Tumor/Muscle ratio [2] was 75.1 ± 17.7. The “Biodistribution: Bladder” value (48 hr post-injection) was 0.38 ± 0.18 % ID/g, the “Biodistribution: Blood” value (48 hr post-injection) was 0.06 ± 0.02 % ID/g and the “Biodistribution: Brain” value (48 hr post-injection) was 0.41 ± 0.05 % ID/g. For the same compound, the “Biodistribution: Fat” value (48 hr post-injection) was 0.25 ± 0.08 % ID/g, the “Biodistribution: Heart” value (48 hr post-injection) was 0.84 ± 0.16 % ID/g and the “Biodistribution: Kidney” value (48 hr post-injection) was 8.78 ± 1.89 % ID/g. For the same compound, the “Biodistribution: Liver” value (48 hr post-injection) was 1.65 ± 0.26 % ID/g, the “Biodistribution: Lung” value (48 hr post-injection) was 9.22 ± 1.25 % ID/g and the “Biodistribution: Muscle” value (48 hr post-injection) was 0.39 ± 0.28 % ID/g. The “Biodistribution: Pancreas” value (48 hr post-injection) was 0.59 ± 0.18 % ID/g, the “Biodistribution: Small intestine” value (48 hr post-injection) was 1.22 ± 0.44 % ID/g and the “Biodistribution: Spleen” value (48 hr post-injection) was 0.67 ± 0.13 % ID/g. For the same compound, the “Biodistribution: Stomach” value (48 hr post-injection) was 1.82 ± 0.43 % ID/g, the “Biodistribution: Tumor” value (48 hr post-injection) was 13.9 % ID/g and 13.92 ± 6.67 % ID/g and the Tumor/Blood ratio (48 hr post-injection) was 212.0 ± 41.4. For the same compound, the Tumor/Kidney ratio (48 hr post-injection) was 1.5 ± 0.5 and the Tumor/Muscle ratio (48 hr post-injection) was 52.0 ± 21.0.
